Measurements from patent publication US20220356170A1, “SREBP INHIBITOR COMPRISING A THIOPHENE CENTRAL RING” (Capulus Therapeutics, LLC, priority 2019, published 2022).

Columns and labels:
Assay in all cases: Cancer cell growth inhibition, Sulforhodamine B
Format in all cases: cell-based
[1] = system: A204; details: Homo sapiens; A204 (muscle), 72 hr; Responder Cell Lines
Description: (§1) The ability of select compounds to inhibit cell growth in various cancer cell lines are evaluated. […] The cell lines shown in Table 5 have reduced growth by at least 50% at 10 uM or lower over 72 hr treatment in growth media. The cell lines shown in Table 6 have reduced growth by at least 50% with an IC50 greater than 10 uM.
(§2) Six 10-fold compound dilutions are prepared in DMSO (e.g. 10 mM, 1 mM, 100 uM, 10 uM, 1 uM, and 0.1 uM). Single data points are acquired for each concentration. The final concentration of DMSO is 0.1%. The duration of the treatment is 72 hr. Growth inhibition is measured using Sulforhodamine B in a protein staining assay. Activity of the agents is determined by evaluation the following parameters: IC50, GI50, IC10, TGI, LC50, IC90, and GI90 (where these values can be calculated).

[2] = system: A2780; details: Homo sapiens; A2780 (ovary), 72 hr; Responder Cell Lines
Description: as §1, §2

[3] = system: ACHN; details: Homo sapiens; ACHN (kidney), 72 hr; Responder Cell Lines
Description: as §1, §2

[4] = system: BT20; details: Homo sapiens, BT-20; BT20 (breast), 72 hr; Non-Responder Cell Lines with IC50 >10 uM or Not Determined
Description: as §1, §2

[5] = system: CALU6; details: Homo sapiens, Calu-6; CALU6 (lung), 72 hr; Non-Responder Cell Lines with IC50 >10 uM or Not Determined
Description: as §1, §2

[6] = system: HCT15; details: Homo sapiens, HCT-15; HCT15 (colon), 72 hr; Responder Cell Lines
Description: as §1, §2

[7] = system: HL-60; details: Homo sapiens; HL-60 (hematological), 72 hr; Responder Cell Lines
Description: as §1, §2

[8] = system: HT1080; details: Homo sapiens, HT-1080; HT1080 (connective tissue), 72 hr; Responder Cell Lines
Description: as §1, §2

[9] = system: JEG3; details: Homo sapiens, JEG-3; JEG3 (placenta), 72 hr; Responder Cell Lines
Description: as §1, §2

[10] = system: JIMT1; details: Homo sapiens, JIMT-1; JIMT1 (breast), 72 hr; Responder Cell Lines
Description: as §1, §2

[11] = system: K-562; details: Homo sapiens, K562; K-562 (hematological), 72 hr; Responder Cell Lines
Description: as §1, §2

[12] = system: L-363; details: Homo sapiens; L-363 (hematological), 72 hr; Responder Cell Lines
Description: as §1, §2

[13] = system: MIAPACA2; details: Homo sapiens, MIA PaCa-2; MIAPACA2 (pancreas), 72 hr; Non-Responder Cell Lines with IC50 >10 uM or Not Determined
Description: as §1, §2

[14] = system: NCIH358M; details: NCI-H358M; NCIH358M (lung), 72 hr; Non-Responder Cell Lines with IC50 >10 uM or Not Determined
Description: as §1, §2

[15] = system: OVCAR3; details: Homo sapiens, OVCAR-3, 72 h, OVCAR3 (ovary)
Description: as §1, §2

[16] = system: PLCPRF5; details: Homo sapiens, PLC-PRF-5, 72 h, PLCPRF5 (liver)
Description: as §1, §2

[17] = system: RDES; details: RD-ES; RDES (bone), 72 hr; Non-Responder Cell Lines with IC50 >10 uM or Not Determined
Description: as §1, §2

[18] = system: RD; details: Homo sapiens; RD (muscle), 72 hr; Non-Responder Cell Lines with IC50 >10 uM or Not Determined
Description: as §1, §2

[19] = system: SKNSH; details: Homo sapiens, SK-N-SH, 72 h, SKNSH (brain)
Description: as §1, §2

[20] = system: SNB75; details: Homo sapiens, SNB-75; SNB75 (brain), 72 hr; Non-Responder Cell Lines with IC50 >10 uM or Not Determined
Description: as §1, §2

[21] = system: SU-DHL-10; details: Homo sapiens, SU-DHL10; SU-DHL-10 (hematological), 72 hr; Non-Responder Cell Lines with IC50 >10 uM or Not Determined
Description: as §1, §2

[22] = system: THP-1; details: Homo sapiens, THP-1, 72 h, THP-1 (hematological)
Description: as §1, §2

[23] = system: U2OS; details: Homo sapiens; U2OS (bone), 72 hr; Non-Responder Cell Lines with IC50 >10 uM or Not Determined
Description: as §1, §2

[24] = system: U87MG; details: Homo sapiens, U-87 MG; U87MG (brain), 72 hr; Non-Responder Cell Lines with IC50 >10 uM or Not Determined
Description: as §1, §2

[25] = system: WSU-NHL; details: Homo sapiens, 72 h, WSU-NHL (hematological)
Description: as §1, §2

[26] = Non-Responder Cell Lines with IC50 >10 uM or Not Determined

Measured: IC50

CC(C)(O)c1cc(-c2csc(-c3ccc(C(=O)N4CCC(O)CC4)cc3Cl)c2)ccn1 [Compound 1, (3-chloro-4-(4-(2-(2-hydroxypropan-2-yl)pyridin-4-yl)thiophen-2-yl)phenyl)(4-hydroxypiperidin-1-yl)methanone]
> 10 µM: [4] | [5] | [13] | [14] | [15]; [26] | [16]; [26] | [17] | [18] | [19]; [26] | [20] | [21] | [22]; [26] | [23] | [24] | [25]; [26]
< 10 µM: [1] | [2] | [3] | [6] | [7] | [8] | [9] | [10] | [11] | [12] | [15]; Responder Cell Lines | [16]; Responder Cell Lines | [19]; Responder Cell Lines | [22]; Responder Cell Lines | [25]; Responder Cell Lines
